Laboratory results taken from patent US8022209B2, “Substituted nitrogen-containing heteroaryl derivatives useful as modulators of the histamine H4 receptor” (Janssen Pharmaceutica NV, priority 2007, dated 2011).

Molecular target: T1, human histamine H4 receptor (Homo sapiens, UniProt Q9H3N8)
T1 construct: expressed in transfected cells; host or cells: SK-N-MC cells or COS7 cells, transiently transfected with pH4R; cell membranes
Experiment: Binding Assay on Recombinant Human Histamine H4 Receptor
Details: competition binding vs 3H-histamine (5 nM, KD 5 nM), membranes of SK-N-MC or COS7 cells transfected with human H4R; Cheng-Prusoff; average of results obtained
Experimental: Binding Assay on Recombinant Human Histamine H4 Receptor
SK-N-MC cells or COS7 cells were transiently transfected with pH4R and grown in 150 cm^2 tissue culture dishes. Cells were washed with saline solution, scraped with a cell scraper and collected by centrifugation (1000 rpm, 5 min). Cell membranes were prepared by homogenization of the cell pellet in 20 mM Tris-HCl with a polytron tissue homogenizer for 10 sec at high speed. Homogenate was centrifuged at 1000 rpm for 5 min at 4° C. The supernatant was then collected and centrifuged at 20,000×g for 25 min at 4° C. The final pellet was resuspended in 50 mM Tris-HCl. Cell membranes were incubated with ^3H-histamine (5-70 nM) in the presence or absence of excess histamine (10,000 nM). Incubation occurred at room temperature for 45 min. Membranes were harvested by rapid filtration over Whatman GF/C filters and washed 4 times with ice-cold 50 mM Tris HCl. Filters were then dried, mixed with scintillant and counted for radioactivity. SK-N-MC or COS7 cells expressing human histamine H4 receptor were used to measure the affinity of binding of other compounds and their ability to displace ^3H-ligand binding by incubating the above-described reaction in the presence of various concentrations of inhibitor or compound to be tested. For competition binding studies using ^3H-histamine, Ki values were calculated, based on an experimentally determined KD value of 5 nM and a ligand concentration of 5 nM, according to Y. C.

SMILES	Ki [nM]
CN1CCN(c2ncnc(-c3cccc4ccccc34)n2)CC1 [compound 112, 2-(4-Methyl-piperazin-1-yl)-4-naphthalen-1-yl-[1,3,5]triazine]	1510
CN1CCN(c2ncnc(-c3cccc(-c4ccccc4)c3)n2)CC1 [compound 108, 2-Biphenyl-3-yl-4-(4-methyl-piperazin-1-yl)-[1,3,5]triazine]	1930
CN1CCN(c2ncnc(-c3ccc4ccccc4c3)n2)CC1 [compound 117, 2-(4-Methyl-piperazin-1-yl)-4-naphthalen-2-yl-[1,3,5]triazine]	> 10000
CN1CCCN(c2ccnc(-c3ccsc3)c2)CC1 [compound 39]	433
CN1CCN(c2ccnc(-c3ccco3)c2)CC1 [compound 27]	87
CNC1CCN(c2ccnc(-c3ccsc3)c2)C1 (stereo not drawn) [compound 66]	216
CN1CCCN(c2ncnc(-c3sccc3Br)n2)CC1 [compound 24, 1-[4-(3-Bromo-thiophen-2-yl)-[1,3,5]triazin-2-yl]-4-methyl-[1,4]diazepane]	267
CN1CCN(c2ccnc(-c3sccc3Cl)c2)CC1 [compound 148]	107

Second part, the compound after the results:

Ki [nM]	SMILES
60	Cc1ccc(F)cc1-c1ncnc(N2CCN(C)CC2)n1 [compound 123, 2-(5-Fluoro-2-methyl-phenyl)-4-(4-methyl-piperazin-1-yl)-[1,3,5]triazine]
99	CN1CCN(c2ncnc(-c3ccc(F)cc3Cl)n2)CC1 [compound 138, 2-(2-Chloro-4-fluoro-phenyl)-4-(4-methyl-piperazin-1-yl)-[1,3,5]triazine]
7	CN1CCN(c2ncnc(-c3cc(F)c(F)c(F)c3)n2)CC1 [compound 11, 2-(4-Methyl-piperazin-1-yl)-4-(3,4,5-trifluoro-phenyl)-[1,3,5]triazine]
193	CN1CCN(c2ncnc(-c3cc(Cl)sc3Cl)n2)CC1 [compound 143, 2-(2,5-Dichloro-thiophen-3-yl)-4-(4-methyl-piperazin-1-yl)-[1,3,5]triazine]
